Source: patent US12116357B2, “Heteroaryl-triazole and heteroaryl-tetrazole compounds as pesticides” (Bayer Aktiengesellschaft, priority 2018, dated 2024)

Experiments:
Format in all cases: in vivo
[1] = test system: Anopheles funestus strain FUMOZ-R; assay: Anopheles funestus test (surface treatment & contact assay); settings: 24 hours after contact, read-out: efficacy (mortality); for mortality at 20 mg/m2: surface concentration 20 mg/m^2, 30 min exposure; for mortality at 4 mg/m2: surface concentration 4 mg/m^2, 30 min exposure
Protocol: (§1) • Solvent: Aceton+2000 ppm rapeseed oil methyl ester (RME)
(§2) In order to produce a sufficient, active ingredient containing solution it is necessary to solve the test compound in the solvent-mix (acetone at 2 mg/ml/RME 2000 ppm). This solution is pipetted onto a glazed tile and after evaporation of the acetone, adult mosquitoes of the species Anopheles funestus strain FUMOZ-R (Hunt et al., Med. Vet. Entomol. 2005 September; 19(3): 271-275) are placed onto the dried surface. The exposure time is 30 minutes.
(§3) Mortality in percent (%) is determined 24 hours after contact of the insects to the treated surface. 100% mortality means that all tested insects are dead, whereas 0% means that no insect died.

[2] = test system: Nezara viridula; assay: Nezara viridula spray test; settings: 96 h
Protocol: (§4) • Solvent: 78.0 parts by weight of acetone • 1.5 parts by weight of dimethylformamide • Emulsifier: alkylarylpolyglycol ether
(§5) To produce a suitable preparation of active compound, 1 part by weight of active compound is mixed with the stated amount of solvent, and the concentrate is diluted with water, containing an emulsifier concentration of 1000 ppm, to the desired concentration. Further test concentrations are prepared by dilution with emulsifier containing water.
Barley plants (Hordeum vulgare) infested with larvae of the southern green stink bug (Nezara viridula) are sprayed with a test solution containing the desired concentration of the active ingredient.
After 4 days mortality in % is determined. 100% means all the stink bugs have been killed; 0% means none of the stink bugs have been killed.

[3] = test system: Myzus persicae; assay: Myzus persicae oral test; settings: 120 h
Protocol: • Solvent: 100 parts by weight acetone
To produce a suitable preparation of active compound, 1 part by weight of active compound is mixed with the stated amount of solvent, and the concentrate is diluted with water to the desired concentration. 50 μl compound solution is filled in microtiter plates and 150 μl IPL41 insect medium (33%+15% sugar) is added to obtain a total volume of 200 μl per well. Afterwards the plates are sealed with parafilm through which a mixed population of the green peach aphid (Myzus persicae) can suck on the compound preparation.
(§6) After 5 days mortality in % is determined. 100% means all aphids have been killed and 0% means none of the aphids have been killed.

[4] = test system: Ctenocephalides felis; assay: Ctenocephalides felis in-vitro contact test, adult cat flea; settings: 5 μg/cm^2, after 48 hours, read-out: efficacy (fleas dead or moribund)
Protocol: (§7) 9 mg compound is solved in 1 ml acetone and diluted with acetone to the desired concentration. 250 μl of the test solution is filled in 25 ml glass test tubes and homogeneously distributed on the inner walls by rotation and tilting on a shaking device (2 h at 30 rpm). With a compound concentration of 900 ppm, an inner surface of 44.7 cm^2 and a homogeneous distribution, a dose of 5 μg/cm^2 is achieved.
(§8) After the solvent has evaporated, each test tube is filled with 5-10 adult cat fleas (Ctenocephalides felis), closed with a perforated lid and incubated in a lying position at room temperature and relative humidity. After 48 hours efficacy is determined. The fleas are patted on the ground of the tubes and are incubated on a heating plate at 45-50° C. for at most 5 minutes. Immotile or uncoordinated moving fleas, which are not able to escape the heat by climbing upwards, are marked as dead or moribund.
An efficacy of 100% means all fleas are dead or moribund; 0% means no fleas are dead or moribund.

[5] = test system: Ctenocephalides felis; assay: Ctenocephalides felis oral test; settings: 48 h, 100 ppm in cattle blood, after 2 days
Protocol: (§9) • Solvent: dimethyl sulfoxide
To produce a suitable preparation of active compound, 10 mg of active compound are dissolved in 0.5 ml solvent, and the concentrate is diluted with cattle blood to the desired concentration.
Approximately 20 adult unfed cat fleas (Ctenocephalides felis) are placed in flea chambers. The blood chamber, sealed with parafilm on the bottom, are filled with cattle blood supplied with compound solution and placed on the gauze covered top of the flea chamber, so that the fleas are able to suck the blood. The blood chamber is heated to 37° C. whereas the flea chamber is kept at room temperature.
After 2 days mortality in % is determined. 100% means all the fleas have been killed; 0% means none of the fleas have been killed.

[6] = test system: Nilaparvata lugens; assay: Nilaparvata lugens spray test; settings: 96 h
Protocol: as §4
as §5, with “solvents” for “solvent,”, “and” for “and the concentrate”
Rice plants (Oryza sativa) are sprayed with a preparation of the active ingredient of the desired concentration and the plants are infested with the brown planthopper (Nilaparvata lugens).
After 4 days mortality in % is determined. 100% means all planthoppers have been killed and 0% means none of the planthoppers have been killed.

[7] = test system: Myzus persicae; assay: Myzus persicae spray test; settings: 120 h
Protocol: (§10) • Solvent: 78.0 parts by weight acetone • 1.5 parts by weight dimethylformamide • Emulsifier: alkylarylpolyglycol ether
as §5, with “solvents” for “solvent,”, “and” for “and the concentrate”
Chinese cabbage (Brassica pekinensis) leaf disks infected with all instars of the green peach aphid (Myzus persicae), are sprayed with a preparation of the active ingredient of the desired concentration.
as §6

[8] = test system: Boophilus microplus; assay: Boophilus microplus injection test; settings: Rhipicephalus microplus, 168 h, 20 μg/animal, egg deposition after 7 days, read-out: efficacy (infertile eggs)
Protocol: as §9
To produce a suitable preparation of active compound, 10 mg of active compound are dissolved in 0.5 ml solvent, and the concentrate is diluted with solvent to the desired concentration.
Five adult engorged female ticks (Boophilus microplus) are injected with 1 μl compound solution into the abdomen. The ticks are transferred into replica plates and incubated in a climate chamber.
After 7 days egg deposition of fertile eggs is monitored. Eggs where fertility is not visible are stored in a climate chamber till hatching after about 42 days. An efficacy of 100% means all eggs are infertile; 0% means all eggs are fertile.

[9] = test system: Spodoptera frugiperda; assay: Spodoptera frugiperda spray test; settings: 168 h
Protocol: as §10
as §5, with “solvents” for “solvent,”, “and” for “and the concentrate”
Maize (Zea mays) leaf sections are sprayed with a preparation of the active ingredient of the desired concentration. Once dry, the leaf sections are infested with fall armyworm larvae (Spodoptera frugiperda).
After 7 days mortality in % is determined. 100% means all caterpillars have been killed and 0% means none of the caterpillars have been killed.

[10] = test system: Aedes aegypti strain MONHEIM; assay: Aedes aegypti test (surface treatment & contact assay); settings: 24 hours after contact, read-out: efficacy (mortality); for mortality at 20 mg/m2: surface concentration 20 mg/m^2, 30 min exposure
Protocol: as §1
as §2, with “Aedes aegypti” for “Anopheles funestus”, “MONHEIM” for “FUMOZ-R (Hunt et al., Med. Vet. Entomol. 2005 September; 19(3): 271-275)”
as §3

[11] = test system: Phaedon cochleariae; assay: Phaedon cochleariae spray test; settings: 168 h, after 7 days
Protocol: as §4
as §5, with “solvents” for “solvent,”, “and” for “and the concentrate”
Chinese cabbage (Brassica pekinensis) leaf disks are sprayed with a preparation of the active ingredient of the desired concentration. Once dry, the leaf disks are infested with mustard beetle larvae (Phaedon cochleariae).
After 7 days mortality in % is determined. 100% means all beetle larvae have been killed and 0% means none of the beetle larvae have been killed.

[12] = test system: Rhipicephalus sanguineus; assay: Rhipicephalus sanguineus in-vitro contact test, adult brown dog ticks
Protocol: as §7
as §8, with “brown dog ticks (Rhipicephalus sanguineus),” for “cat fleas (Ctenocephalides felis),”, “ticks” for “fleas”, “ticks,” for “fleas,”
An efficacy of 100% means all ticks are dead or moribund; 0% means no ticks are dead or moribund.

[13] = test system: Musca domestica strain WHO-N; assay: Musca domestica test (surface treatment & contact assay); settings: 24 hours after contact, read-out: efficacy (mortality)
Protocol: as §1
as §2, with “flies” for “mosquitoes”, “Musca domestica” for “Anopheles funestus”, “WHO-N” for “FUMOZ-R (Hunt et al., Med. Vet. Entomol. 2005 September; 19(3): 271-275)”
as §3

[14] = surface concentration 4 mg/m^2, 30 min exposure

Structure (SMILES) | mortality at 20 mg/m2 [1] [%] | mortality at 500 g/ha [2] [%] | mortality at 4 ppm [3] [%] | pest or weed control at 5 µg/cm2 [4] [%] | mortality at 100 ppm [5] [%] | mortality at 500 g/ha [6] [%] | mortality at 500 g/ha [7] [%] | pest or weed control at 0.02 mg [8] [%] | mortality at 500 g/ha [9] [%] | mortality at 20 mg/m2 [10] [%] | mortality at 4 mg/m2 [1] [%] | mortality at 20 ppm [3] [%] | mortality at 500 g/ha [11] [%] | efficacy (ticks dead or moribund) ([12]; 5 μg/cm^2, after 48 hours) [%] | efficacy (ticks dead or moribund) ([12]; 1 μg/cm^2, after 48 hours) [%] | mortality at 4 mg/m2 [13, 14] [%] | mortality at 4 mg/m2 [10, 14] [%] | mortality at 20 mg/m2 ([13]; surface concentration 20 mg/m^2, 30 min exposure) [%]
COCCN(C(=O)c1cc(Cl)cc(S(C)(=O)=O)c1)C(C)c1ncnn1-c1ncccn1 (stereo not drawn) [Example I-031] | 85 to 100 | 100 | 100 | 80 | 100 | 100 | 100 | 100 |  |  |  |  |  |  |  |  |  | 
CCOC(=O)NCCN(C(=O)c1cc(Cl)cc(C(F)(F)F)c1)C(C)c1ncnn1-c1ncccn1 (stereo not drawn) [Example I-042] |  | 100 | 100 |  |  | 100 | 100 |  | 100 |  |  |  |  |  |  |  |  | 
CC(c1ncnn1-c1ncccn1)N(C(=O)c1cc(Cl)cc(C(F)(F)F)c1)C1CS(=O)(=O)C1 (stereo not drawn) [Example I-025] | 85 to 100 | 100 | 100 |  | 100 | 90 |  |  |  | 90 to 100 | 85 to 100 | 100 | 100 |  |  |  |  | 
CC(=O)NCCN(C(=O)c1cc(Cl)cc(C(F)(F)F)c1)C(C)c1ncnn1-c1ncccn1 (stereo not drawn) [Example I-043] |  | 100 | 100 |  |  |  | 100 |  | 100 |  |  |  |  |  |  |  |  | 
CC(c1ncnn1-c1ncccn1)N(CCNS(C)(=O)=O)C(=O)c1cc(Cl)cc(C(F)(F)F)c1 (stereo not drawn) [Example I-041] |  |  | 100 |  |  |  | 90 |  | 100 |  |  |  |  |  |  |  |  | 
CCON(C(=O)c1cccc(C(F)(F)F)c1)C(C)c1ncnn1-c1ncccn1 (stereo not drawn) [Example I-029] |  | 100 | 100 | 100 | 80 |  |  | 100 |  |  |  |  |  | 80 |  |  |  | 
COCCN(C(=O)c1cc(Cl)cc(C(F)(F)F)c1)C(C)c1ncnn1-c1ncccn1 (stereo not drawn) [Example I-005] |  | 90 | 100 |  | 100 |  |  | 100 | 100 |  |  | 100 | 100 | 80 | 80 |  |  | 
CSCCN(C(=O)c1cc(Cl)cc(Cl)c1)C(C)c1ncnn1-c1ccc(C#N)cn1 (stereo not drawn) [Example I-036] |  | 90 | 100 | 100 |  |  | 90 |  | 100 |  |  |  |  |  |  |  |  | 
CSCCN(C(=O)c1cc(Cl)cc(S(C)(=O)=O)c1)C(C)c1ncnn1-c1ncccn1 (stereo not drawn) [Example I-032] |  | 100 | 100 | 100 |  | 100 | 90 |  |  |  |  |  |  |  |  |  |  | 
CC(c1ncnn1-c1ncccn1)N(CC1CSC1)C(=O)c1cc(Cl)cc(C(F)(F)F)c1 (stereo not drawn) [Example I-011] | 85 to 100 | 100 | 100 |  | 100 | 100 | 100 | 95 | 100 | 90 to 100 | 85 to 100 | 100 | 100 |  |  | 90 to 100 |  | 
CC(c1ncnn1-c1ncccn1)N(CC1OCCO1)C(=O)c1cc(Cl)cc(C(F)(F)F)c1 (stereo not drawn) [Example I-023] | 85 to 100 |  | 100 | 80 | 100 |  | 100 | 100 | 100 |  |  |  |  |  |  |  |  | 
CSCCN(C(=O)c1cc(F)cc(C2CC2)c1)C(C)c1ncnn1-c1ccc(C#N)cn1 (stereo not drawn) [Example I-040] |  |  |  | 100 |  |  | 100 |  |  |  |  |  |  |  |  |  |  | 
CSCCN(C(=O)c1cc(Cl)cc(S(F)(F)(F)(F)F)c1)C(C)c1ncnn1-c1ccc(C#N)cn1 (stereo not drawn) [Example I-039] |  | 100 |  | 100 |  |  | 100 |  | 100 |  |  |  |  |  |  |  |  | 
CC(c1ncnn1-c1ncccn1)N(Cc1ncccn1)C(=O)c1cc(Cl)cc(C(F)(F)F)c1 (stereo not drawn) [Example I-010] | 85 to 100 | 100 | 100 | 100 | 100 |  |  | 100 | 100 | 90 to 100 | 85 to 100 | 100 | 100 |  |  |  | 80 to 100 | 90 to 100
